Legend:
Assay type in all cases: in vivo
Galium aparine [1] = assay: Post-emergence test, weed control; settings: 2–4 weeks after treatment, rating 0-100 (100=death), Table 5
Protocol: (§1) These acetone solutions are diluted with water and the resulting formulations applied at dosage levels equivalent of about 0.030 to 0.240 kg per hectare of test compound per pot. After spraying the plants are placed an greenhouse benches and are cared for in the usual manner, commensurate with conventional greenhouse practices. From 2 to 4 weeks after treatment, the seedling plants are examined and rated according to the rating system provided above. A rating 0 indicates growth as untreated control, a rating 100 indicates death.

VIOAR = assay: Post-emergence test, weed control; settings: 2–4 weeks after treatment, rating 0-100 (100=death), Table 5
Protocol: as §1

Polygonum convolvulus [2] = assay: Post-emergence test, weed control; settings: 2–4 weeks after treatment, rating 0-100 (100=death), Table 5
Protocol: as §1

Stellaria media [3] = assay: Post-emergence test, weed control; settings: 2–4 weeks after treatment, rating 0-100 (100=death), Table 5
Protocol: as §1

Matricaria inodora [4] = assay: Post-emergence test, weed control; settings: 2–4 weeks after treatment, rating 0-100 (100=death), Table 5
Protocol: as §1

Setaria viridis [5] = assay: Post-emergence test, weed control; settings: 2–4 weeks after treatment, rating 0-100 (100=death), Table 5
Protocol: as §1

Lamium purpureum [6] = assay: Post-emergence test, weed control; settings: 2–4 weeks after treatment, rating 0-100 (100=death), Table 5
Protocol: as §1

[7] = tested on: Triticum aestivum variety “Kanzler”; assay: Post-emergence test, selectivity; settings: 2–4 weeks after treatment, rating 0-100 (100=death), Table 6
Protocol: as §1

[8] = tested on: Triticum aestivum variety “Monopol”; assay: Post-emergence test, selectivity; settings: 2–4 weeks after treatment, rating 0-100 (100=death), Table 6
Protocol: as §1

Galium aparine [9] = assay: Pre-emergence test, weed control; settings: 3 weeks after treatment, rating 0-100 (100=death), Table 1
Summary of the method: (§2)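 Compound in acetone with 0.4% w/w alkylphenol/ethylene oxide condensate, diluted in water, was sprayed onto horticultural loam freshly sown with seeds. Rates were 15, 30, 60, 120 or 240 g active/ha in 900 l/ha. Effects were scored visually at three weeks on a 0–100 scale (0 = as untreated sown soil, 100 = death).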

Poa annua = assay: Pre-emergence test, weed control; settings: 3 weeks after treatment, rating 0-100 (100=death), Table 1
Summary of the method: as §2

Veronica persica = assay: Pre-emergence test, weed control; settings: 3 weeks after treatment, rating 0-100 (100=death), Table 1
Summary of the method: as §2

Lolium perenne = assay: Pre-emergence test, weed control; settings: 3 weeks after treatment, rating 0-100 (100=death), Table 1
Summary of the method: as §2

Polygonum convolvulus [10] = assay: Pre-emergence test, weed control; settings: 3 weeks after treatment, rating 0-100 (100=death), Table 1
Summary of the method: as §2

Stellaria media [11] = assay: Pre-emergence test, weed control; settings: 3 weeks after treatment, rating 0-100 (100=death), Table 1
Summary of the method: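 Visual 0–100 rating, three weeks after treatment, where 0 equals untreated sown soil and 100 means plant death. Sown horticultural loam received an aqueous dilution of acetone solution (0.4% w/w alkylphenol/ethylene oxide condensate) at 15–240 g/ha, 900 l/ha spray volume.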

Apera spica-venti = assay: Pre-emergence test, weed control; settings: 3 weeks after treatment, rating 0-100 (100=death), Table 1
Summary of the method: as §2

Matricaria inodora [12] = assay: Pre-emergence test, weed control; settings: 3 weeks after treatment, rating 0-100 (100=death), Table 1
Summary of the method: as §2

Alopecurus myosuroides = assay: Pre-emergence test, weed control; settings: 3 weeks after treatment, rating 0-100 (100=death), Table 1
Summary of the method: as §2

Setaria viridis [13] = assay: Pre-emergence test, weed control; settings: 3 weeks after treatment, rating 0-100 (100=death), Table 1
Summary of the method: as §2

Lamium purpureum [14] = assay: Pre-emergence test, weed control; settings: 3 weeks after treatment, rating 0-100 (100=death), Table 1
Summary of the method: as §2

What does the source list for `Cc1nc(-c2ccc(C(F)(F)F)cc2)nc(Oc2cccc(C(F)(F)F)c2)c1C` [REF-2]?
GALAP weed control rating (Galium aparine [1]; 0.030 kg/ha): 50; GALAP weed control rating (Galium aparine [1]; 0.060 kg/ha): 80; GALAP weed control rating (Galium aparine [1]; 0.120 kg/ha): 85; GALAP weed control rating (Galium aparine [1]; 0.240 kg/ha): 85; VIOAR weed control rating (VIOAR; 0.030 kg/ha): 75; VIOAR weed control rating (VIOAR; 0.060 kg/ha): 90; VIOAR weed control rating (VIOAR; 0.120 kg/ha): 90; VIOAR weed control rating (VIOAR; 0.240 kg/ha): 95; POLCO weed control rating (Polygonum convolvulus [2]; 0.060 kg/ha): 0; POLCO weed control rating (Polygonum convolvulus [2]; 0.120 kg/ha): 25; POLCO weed control rating (Polygonum convolvulus [2]; 0.240 kg/ha): 40; STEME weed control rating (Stellaria media [3]; 0.030 kg/ha): 45; STEME weed control rating (Stellaria media [3]; 0.060 kg/ha): 50; STEME weed control rating (Stellaria media [3]; 0.120 kg/ha): 55; STEME weed control rating (Stellaria media [3]; 0.240 kg/ha): 80; MATIN weed control rating (Matricaria inodora [4]; 0.030 kg/ha): 35; MATIN weed control rating (Matricaria inodora [4]; 0.060 kg/ha): 45; MATIN weed control rating (Matricaria inodora [4]; 0.120 kg/ha): 55; MATIN weed control rating (Matricaria inodora [4]; 0.240 kg/ha): 60; SETVI weed control rating (Setaria viridis [5]; 0.030 kg/ha): 30; SETVI weed control rating (Setaria viridis [5]; 0.060 kg/ha): 55; SETVI weed control rating (Setaria viridis [5]; 0.120 kg/ha): 96; SETVI weed control rating (Setaria viridis [5]; 0.240 kg/ha): 100; LAMPU weed control rating (Lamium purpureum [6]; 0.030 kg/ha): 85; LAMPU weed control rating (Lamium purpureum [6]; 0.060 kg/ha): 90; LAMPU weed control rating (Lamium purpureum [6]; 0.120 kg/ha): 92; LAMPU weed control rating (Lamium purpureum [6]; 0.240 kg/ha): 93; TRZAWK rating (Selectivity) ([7]; 0.03 kg/ha): 3; TRZAWK rating (Selectivity) ([7]; 0.06 kg/ha): 5; TRZAWK rating (Selectivity) ([7]; 0.12 kg/ha): 8; TRZAWK rating (Selectivity) ([7]; 0.24 kg/ha): 10; TRZAWM rating (Selectivity) ([8]; 0.03 kg/ha): 2; TRZAWM rating (Selectivity) ([8]; 0.06 kg/ha): 5; TRZAWM rating (Selectivity) ([8]; 0.12 kg/ha): 8; TRZAWM rating (Selectivity) ([8]; 0.24 kg/ha): 8; GALAP weed control rating (Galium aparine [9]; 0.015 kg/ha): 0; GALAP weed control rating (Galium aparine [9]; 0.030 kg/ha): 0; GALAP weed control rating (Galium aparine [9]; 0.060 kg/ha): 3; GALAP weed control rating (Galium aparine [9]; 0.120 kg/ha): 5; GALAP weed control rating (Galium aparine [9]; 0.240 kg/ha): 50; POAAN weed control rating (Poa annua; 0.015 kg/ha): 65; POAAN weed control rating (Poa annua; 0.030 kg/ha): 95; POAAN weed control rating (Poa annua; 0.060 kg/ha): 97; POAAN weed control rating (Poa annua; 0.120 kg/ha): 100; POAAN weed control rating (Poa annua; 0.240 kg/ha): 100; VERPE weed control rating (Veronica persica; 0.015 kg/ha): 25; VERPE weed control rating (Veronica persica; 0.030 kg/ha): 99; VERPE weed control rating (Veronica persica; 0.060 kg/ha): 100; VERPE weed control rating (Veronica persica; 0.120 kg/ha): 100; VERPE weed control rating (Veronica persica; 0.240 kg/ha): 100; LOLPE weed control rating (Lolium perenne; 0.015 kg/ha): 5; LOLPE weed control rating (Lolium perenne; 0.030 kg/ha): 30; LOLPE weed control rating (Lolium perenne; 0.060 kg/ha): 60; LOLPE weed control rating (Lolium perenne; 0.120 kg/ha): 93; LOLPE weed control rating (Lolium perenne; 0.240 kg/ha): 97; POLCO weed control rating (Polygonum convolvulus [10]; 0.015 kg/ha): 0; POLCO weed control rating (Polygonum convolvulus [10]; 0.030 kg/ha): 0; POLCO weed control rating (Polygonum convolvulus [10]; 0.060 kg/ha): 0; POLCO weed control rating (Polygonum convolvulus [10]; 0.120 kg/ha): 30; POLCO weed control rating (Polygonum convolvulus [10]; 0.240 kg/ha): 80; STEME weed control rating (Stellaria media [11]; 0.015 kg/ha): 0; STEME weed control rating (Stellaria media [11]; 0.060 kg/ha): 20; STEME weed control rating (Stellaria media [11]; 0.120 kg/ha): 97; STEME weed control rating (Stellaria media [11]; 0.240 kg/ha): 100; APESV weed control rating (Apera spica-venti; 0.015 kg/ha): 80; APESV weed control rating (Apera spica-venti; 0.030 kg/ha): 85; APESV weed control rating (Apera spica-venti; 0.060 kg/ha): 98; APESV weed control rating (Apera spica-venti; 0.120 kg/ha): 100; APESV weed control rating (Apera spica-venti; 0.240 kg/ha): 100; MATIN weed control rating (Matricaria inodora [12]; 0.015 kg/ha): 95; MATIN weed control rating (Matricaria inodora [12]; 0.030 kg/ha): 98; MATIN weed control rating (Matricaria inodora [12]; 0.060 kg/ha): 98; MATIN weed control rating (Matricaria inodora [12]; 0.120 kg/ha): 99; MATIN weed control rating (Matricaria inodora [12]; 0.240 kg/ha): 99; ALOMY weed control rating (Alopecurus myosuroides; 0.015 kg/ha): 0; ALOMY weed control rating (Alopecurus myosuroides; 0.030 kg/ha): 5; ALOMY weed control rating (Alopecurus myosuroides; 0.060 kg/ha): 15; ALOMY weed control rating (Alopecurus myosuroides; 0.120 kg/ha): 65; ALOMY weed control rating (Alopecurus myosuroides; 0.240 kg/ha): 70; SETVI weed control rating (Setaria viridis [13]; 0.015 kg/ha): 65; SETVI weed control rating (Setaria viridis [13]; 0.060 kg/ha): 97; SETVI weed control rating (Setaria viridis [13]; 0.120 kg/ha): 100; SETVI weed control rating (Setaria viridis [13]; 0.240 kg/ha): 100; LAMPU weed control rating (Lamium purpureum [14]; 0.030 kg/ha): 40; LAMPU weed control rating (Lamium purpureum [14]; 0.060 kg/ha): 75; LAMPU weed control rating (Lamium purpureum [14]; 0.120 kg/ha): 98; LAMPU weed control rating (Lamium purpureum [14]; 0.240 kg/ha): 100

From US7008905B2, “Method of combating undesired plant growth on cereals” (BASF Aktiengesellschaft, priority 2000, dated 2006)
